From patent US7829548B2, “Compounds useful in the treatment of HIV” (Medivir AB, priority 2004, dated 2010)
pEC50: −log10 of the molar value. Read-outs that look alike come from different tables or passages of the source.

Legend:
[1] = system: HIV-1 isolates from patient plasma samples; assay type: cell-based
Experimental: The susceptibility of 2′,3′-dideoxy-3′-C-hydroxymethyl-cytosine on HIV-1 isolates from patient plasma samples that bear typical TAM primer rescue mutant resistant genotypes is determined by the commercially available PhenoSense HIV assay (described in Petropoulos, C J et al., (2000) Antimicrob. Agents Chemother. 44:920-928 and performed by ViroLogics, Inc). The assay is performed by amplifying the protease (PR)-RT segment of the HIV pol gene from patient plasma and inserting the amplification products into a modified HIV-1 vector derived from an NL4-3 molecular clone.
Viral stocks are prepared by co-transfecting 293 cell cultures with recombinant viral DNA vector and an expression vector that produces the amphotropic murine leukemia virus envelope proteins. Pseudotyped virus particles are harvested from the transfected cell cultures and are used to infect fresh 293 cell cultures. The recombinant viral DNA contains a luciferase gene cassette within the HIV env gene region and the production of luciferase in target cells is dependent on the completion of one round of virus replication. Drug susceptibility is measured by adding serial concentrations of the compound of the invention and the reference compounds to the cells. Drugs that inhibit virus replication reduce luciferase signal in a dose-dependent manner, providing a quantitative measure of drug susceptibility.

[2] = system: TAM primer rescue-related resistant HIV isolates; assay: Drug susceptibility assay in PBMC culture (p24 antigen); assay type: cell-based, HIV-1; conditions: primer rescue mutant isolates of Table 4
Experimental: The antiviral performance of the compound of the invention against additional TAM primer rescue-related resistant HIV isolates was assayed in a PBMC culture. Isolates of HIV-1 were generated and expanded to high titer by co-cultivation of infected patient PBMC with PHA-stimulated donor PBMC (Virology Manual for ACTG HIV Laboratories). The cell-free supernatants were harvested, sequenced, and stored in aliquots at −70° C. for drug susceptibility assays.
In vitro drug susceptibility assays were performed using a modified ACTG/DOD consensus method (Virology Manual for ACTG HIV laboratories). PBMCs were pre-infected with viral stocks for 4 hrs at […] in a humidified atmosphere of 5% CO2 following 4 hr incubation. Infected cells were washed twice in media and pipetted into a microtiter plate with eight serial drug dilutions. Each well contained 100,000 pre-infected PBMC and all drug dilutions were made with cell culture medium. The drug dilutions were chosen to span the 50% inhibitory concentration (IC50) for each single drug. Control wells containing cells and virus were co-incubated on each plate. After a 7-day incubation at […] in a […] atmosphere of 5% CO2, viral growth was determined using a p24 antigen assay on supernatants (Abbott Laboratories, Chicago, USA). The percent inhibition of viral growth compared to the control well, which contained no drug, was calculated and expressed as fold changes (reductions in compounds susceptibility) compared to the control well. The reference compound AZT was run in parallel with the compound of the invention.
A cluster of representative of primer rescue-related mutant virus was selected that harbors the essential feature of primer rescue-related TAM resistant RT mutations. Strains with mutations at position M41L, D67N, K70R, L210W, T215Y/F and K219Q/E in various combinations with or without discriminative mutant M184V were used as indicated in Table 4.

[3] = system: HIV; assay: Antiretroviral ED50 in human H9 cells; assay type: cell-based; conditions: Human immunodeficiency virus 1

With `Nc1ccn([C@H]2C[C@H](CO)[C@@H](CO)O2)c(=O)n1` [compound of the invention, 2′,3′-dideoxy-3′-C-hydroxymethylcytidine] the FC value ([1]; isolate 4 (K65R+M184V, R211S, K219E)) was 3.88, the “fold difference in susceptibility” value ([1]; patient isolate 19 (M184V + TAMs), compared to wild type HIV) was 1.78 fold and the “fold reduction in susceptibility” value ([1]; patient isolate 20 (TAM), compared to wild-type HIV) was 1.0 fold. For the same molecule, the “fold reduction in susceptibility” value ([1]; patient isolate 21 (TAM), compared to wild-type HIV) was < 1.0 fold, the “fold reduction in susceptibility” value ([1]; patient isolate 32 (T69S + VG insertion)) was 2.79 fold and the “fold reduction in susceptibility” value ([1]; patient isolate 35 (T69S + VA insertion)) was 4.29 fold. For the same molecule, the “change in drug susceptibility” value ([1]; patient isolates 31, 32 and 35 (T69S + XX + TAMs), compared with six reference antivirals) was “smallest change in drug susceptibility”, the FC value [2] was ≤ 2.7 and the pEC50 [3] was ~8.00.
